Assays:
RhoA [1] = assay type: cell-based, monkey
Rac1 = target: T1, Rac1 (Homo sapiens, UniProt P63000); test: G-trap assay validation, active Rac1 in HeLa cells; assay type: cell-based; settings: calpeptin-mediated activation of RhoA
T1 construct: endogenous in cells; host or cells: HeLa (ATCC)

RhoA [2] = assay type: cell-based
Rap1 = assay type: cell-based, monkey
[3] = tested on: polarized endothelial cells; test: Cell barrier function and viral infection in polarized endothelial cells; assay type: cell-based; settings: unpublished results

Structure (SMILES): CCCC[C@@H](C=O)NC(=O)[C@H](CC(C)C)NC(=O)OCc1ccccc1 [calpeptin]
- increase in active RhoA (RhoA [1]): > 2 fold
- Rac1 activity (Rac1): concomitant decrease in Rac1 activity

Structure (SMILES): CCN(CC)CCCC(C)Nc1nc(C)cc(Nc2ccc3nc(C)cc(N)c3c2)n1 (stereo not shown) [NSC23766]
- RhoA-GTP above EGF stimulation alone (RhoA [1]): 1.3 fold
- RhoA-GTP increase above basal levels (RhoA [1]): 2 fold
- RhoA activity (RhoA [2]): elevated relative to resting cells
- activation of RhoA relative to resting cells (RhoA [2]): > 5 fold

Structure (SMILES): COC(=O)[C@H](CCSC)NC(=O)c1ccc(NC[C@@H](N)CS)cc1-c1ccccc1 [FTI277]
- increase in active Rap1 (Rap1): ~2 fold

Structure (SMILES): C[C@@H](N)[C@H]1CC[C@H](C(=O)Nc2ccncc2)CC1 [Y27632]
- loss of cell barrier function [3]: blocks the loss of cell barrier function
- viral infection [3]: limits viral infection

Structure (SMILES): COc1ccc(C2CC(c3ccccc3)=NN2c2ccc(S(N)(=O)=O)cc2)cc1 (stereo not shown) [CID2950007]
- RhoA activity (RhoA [2]): no effect on RhoA activity
